Experimental data from US20120252804A1, “COMPOSITION AND METHOD FOR CONTROLLING ARTHROPOD PESTS” (SUMITOMO CHEMICAL COMPANY, LIMITED, priority 2009, published 2012).

Tests used:
Format in all cases: in vivo
[1] = tested on: Sweetpotato Whitefly (Bemisia tabaci); assay: Test Example 2: pesticidal effect of leaf dipping treatment on Sweetpotato Whitefly; conditions: composition of the compound and pyriproxyfen; cabbage leaf disk with eggs dipped 30 seconds, after 8 days; summary of Table 44
[2] = tested on: brown planthopper (Nilaparvata lugens); assay: Test Example 1: pesticidal effect against brown planthopper by foliage spray treatment of rice; conditions: composition of the compound and pyriproxyfen; foliage spray on rice seedlings, third-instar larvae, after 5 days; summary of Table 43
[3] = tested on: brown planthopper (Nilaparvata lugens); assay: Test Example 3: pesticidal effect against brown planthopper by foliage spray treatment of rice; conditions: composition of the compound and pyriproxyfen; foliage spray on rice seedlings, third-instar larvae, after 5 days; summary of Table 45
[4] = tested on: Sweetpotato Whitefly (Bemisia tabaci); assay: Test Example 4: pesticidal effect of leaf dipping treatment on Sweetpotato Whitefly; conditions: composition of the compound and pyriproxyfen; cabbage leaf disk with eggs dipped 30 seconds, after 8 days; summary of Table 46

SMILES | pesticidal efficacy on Sweetpotato Whitefly (Bemisia tabaci) [1] | pesticidal efficacy against brown planthopper (Nilaparvata lugens) [2] | pesticidal efficacy against brown planthopper (Nilaparvata lugens) [3] | pesticidal efficacy on Sweetpotato Whitefly (Bemisia tabaci) [4]
FC(F)(F)c1ccc2oc(-c3ccncc3Cl)nc2c1 [Compound 18, 2-(3-chloropyridin-4-yl)-5-(trifluoromethyl)benzoxazole] | high pesticidal efficacy | high pesticidal efficacy |  | 
FC(F)(F)COc1cnccc1-c1nc2cc(C(F)(F)F)ccc2o1 [Compound 39, 2-[3-(2,2,2-trifluoroethyl)oxypyridin-4-yl]-5-(trifluoromethyl)benzoxazole] |  |  | high pesticidal efficacy | high pesticidal efficacy
CC(C)Oc1cnccc1-c1nc2cc(C(F)(F)F)ccc2o1 [Compound 70, 2-(3-isopropoxypyridin-4-yl)-5-(trifluoromethyl)benzoxazole] | high pesticidal efficacy | high pesticidal efficacy |  | 
FC(F)(F)Sc1ccc2oc(-c3ccncc3Cl)nc2c1 [Compound 77, 2-(3-chloropyridin-4-yl)-5-(trifluoromethylthio)benzoxazole] | high pesticidal efficacy | high pesticidal efficacy |  | 
CCc1cnccc1-c1nc2cc(OC(F)(F)F)ccc2o1 [Compound 109, 2-(3-ethylpyridin-4-yl)-5-(trifluoromethoxy)benzoxazole] | high pesticidal efficacy | high pesticidal efficacy |  | 
CC(C)COc1cnccc1-c1nc2cc(C(F)(F)F)ccc2o1 [Compound 116, 2-(3-isobutoxypyridin-4-yl)-5-(trifluoromethyl)benzoxazole] |  |  | high pesticidal efficacy | high pesticidal efficacy
CC(C)(C)COc1cnccc1-c1nc2cc(C(F)(F)F)ccc2o1 [Compound 117, 2-[3-(2,2-dimethylpropoxy)pyridin-4-yl]-5-(trifluoromethyl)benzoxazole] |  |  | high pesticidal efficacy | high pesticidal efficacy
FC(F)(F)c1ccc2oc(-c3ccncc3-c3cccnc3)nc2c1 [Compound 128, 4-(5-trifluoromethyl-benzoxazole-2-yl)-[3,3]bipyridinyl] | high pesticidal efficacy | high pesticidal efficacy |  | 
FC(F)(F)c1cnc2oc(-c3ccncc3Cl)nc2c1 [Compound 139, 2-(3-chloropyridin-4-yl)-6-(trifluoromethyl)oxazolo[5,4-b]pyridine] | high pesticidal efficacy | high pesticidal efficacy |  | 
CCc1cnccc1-c1nc2cc(C(F)(F)F)cnc2o1 [Compound 143, 2-(3-ethylpyridin-4-yl)-6-(trifluoromethyl)oxazolo[5,4-b]pyridine] | high pesticidal efficacy | high pesticidal efficacy |  | 
CSc1cnccc1-c1nc2cc(C(F)(F)F)cnc2o1 [Compound 146, 2-(3-methylthiopyridin-4-yl)-6-(trifluoromethyl)oxazolo[5,4-b]pyridine] | high pesticidal efficacy | high pesticidal efficacy |  | 
FC(F)(F)COc1cnccc1-c1nc2cc(C(F)(F)F)cnc2o1 [Compound 163] |  |  | high pesticidal efficacy | high pesticidal efficacy
